Among the data in PubChem BioAssay (NCI) are TGI values, retold here.

Structures are written as SMILES.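 Compound exposure: 48 hours, 5 concentrations, 96-well plates. Definition used: TGI = concentration required for complete inhibition of growth.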 Where only a bound is given, the exact number is not on record here.

Test systems include BT-549 breast; CAKI-1 renal; DU-145 prostate; EKVX NSCLC; HOP-62 NSCLC; IGROV1 ovarian; MDA-MB-435; NCI-H460 lung; RPMI-8226 leukemia; RXF 393 renal; SK-MEL-2 melanoma; SR leukemia.
Holding throughout (experiment): growth of human tumour cells (NCI), 48 h

On to `CC1=CC(C2/C(=N/O)C=C(C)CC2(C)C)C(O)C(C)(C)C1` (centres undefined), for which the TGI in the assay on BT-549 breast amounted to 32.8 µM; in the assay on CAKI-1 renal it was 28.2 µM; with DU-145 prostate, 29.1 µM; in the assay with EKVX NSCLC it was 31.4 µM; in the assay with HOP-62 NSCLC, 29.5 µM; in the assay with IGROV1 ovarian, 32.6 µM. Besides, the TGI worked out at 31.2 µM in the assay with MDA-MB-435; 43.1 µM in the assay on NCI-H460 lung; 33.6 µM in the assay on RPMI-8226 leukemia; 30 µM in the assay with RXF 393 renal; 30.6 µM with SK-MEL-2 melanoma.
Turning to `O=C(O)c1ccc(NNc2cc(=O)[nH]c(=O)[nH]2)cc1`, the TGI in the assay with BT-549 breast, in the assay with DU-145 prostate, in the assay with EKVX NSCLC, in the assay with HOP-62 NSCLC, in the assay on IGROV1 ovarian and in the assay with NCI-H460 lung was above 100 µM each time. The TGI in the assay with RPMI-8226 leukemia, in the assay on RXF 393 renal, with SK-MEL-2 melanoma and with SR leukemia was above 100 µM each time.
On to `COc1ccc2c(c1)CC[C@@H]1[C@@H]2CC[C@]2(C)C(=O)/C(=C/c3ccc(OC)c(OC)c3)C[C@@H]12`, for which the TGI in the assay on BT-549 breast, in the assay with CAKI-1 renal, in the assay with DU-145 prostate, with EKVX NSCLC, in the assay on HOP-62 NSCLC and in the assay on MDA-MB-435 was above 100 µM in each case. Further, the TGI in the assay on NCI-H460 lung, in the assay with RPMI-8226 leukemia, with RXF 393 renal, in the assay with SK-MEL-2 melanoma and with SR leukemia was above 100 µM throughout.
For `N#Cc1c(-c2ccccc2)[nH]c2ccccc2c1=O`, the TGI in the assay with BT-549 breast was 69.8 µM; in the assay with CAKI-1 renal it was above 100 µM; in the assay with DU-145 prostate, above 100 µM; in the assay with EKVX NSCLC it was above 100 µM; in the assay with HOP-62 NSCLC, 84.9 µM; in the assay on IGROV1 ovarian, above 100 µM. Further, the TGI was 59.2 µM with MDA-MB-435; above 100 µM with NCI-H460 lung; above 100 µM with RXF 393 renal; above 100 µM with SK-MEL-2 melanoma; above 100 µM with SR leukemia.
Take `CC(=O)c1csc2c1C(=O)c1scc(C(C)=O)c1C2=O`: the TGI in the assay on BT-549 breast came out at 3.18 µM; with CAKI-1 renal it was 4.1 µM; in the assay with DU-145 prostate, 3.34 µM; with EKVX NSCLC, 3.36 µM; with HOP-62 NSCLC it was 3.43 µM; in the assay with IGROV1 ovarian it was 3.08 µM. Moreover, the TGI was 0.336 µM in the assay on MDA-MB-435; 2.35 µM in the assay on NCI-H460 lung; 3.14 µM in the assay with RPMI-8226 leukemia; 3.9 µM in the assay with RXF 393 renal; 3.73 µM in the assay with SK-MEL-2 melanoma.
Consider `CC(=O)Oc1ccccc1-c1cc2ccccc2oc1=O`, for which the TGI with BT-549 breast, with DU-145 prostate, in the assay on EKVX NSCLC, with HOP-62 NSCLC, in the assay on MDA-MB-435 and in the assay on NCI-H460 lung was above 100 µM throughout. For the same molecule, the TGI in the assay on RPMI-8226 leukemia, in the assay with SK-MEL-2 melanoma and in the assay on SR leukemia was above 100 µM in each case.
Regarding `CSC1=C(SC)SC(=C2SC3=C(SC(=C4SCCS4)S3)S2)S1`, the TGI in the assay with BT-549 breast, in the assay on CAKI-1 renal, with DU-145 prostate, in the assay on EKVX NSCLC, with HOP-62 NSCLC and in the assay with IGROV1 ovarian was above 100 µM in each case. Besides, the TGI in the assay with MDA-MB-435, in the assay on NCI-H460 lung, in the assay with RPMI-8226 leukemia, with SK-MEL-2 melanoma and in the assay with SR leukemia was above 100 µM each time.
With `Cn1ccc(C(=O)NCCOCCNC(=O)c2ccn(C)c(=O)c2O)c(O)c1=O`, the TGI in the assay with BT-549 breast, with CAKI-1 renal, in the assay with DU-145 prostate, with MDA-MB-435, in the assay on NCI-H460 lung and with RPMI-8226 leukemia was above 100 µM in each case. In addition, the TGI in the assay with SK-MEL-2 melanoma was above 100 µM.
Take `COc1ccc2c(c1)CCc1c-2[nH]c2ccc(OC)cc12`: the TGI in the assay on BT-549 breast, with CAKI-1 renal, in the assay on DU-145 prostate, with EKVX NSCLC, in the assay on HOP-62 NSCLC and in the assay on IGROV1 ovarian was above 100 µM in each case. Further, the TGI with MDA-MB-435, in the assay on NCI-H460 lung, in the assay with RPMI-8226 leukemia, in the assay with SK-MEL-2 melanoma and in the assay on SR leukemia was above 100 µM each time.
`CCN(CC)/C(Cl)=C(Cl)\C(=C1\Nc2ccc(OC)cc21)[N+](=O)[O-]`: the TGI with BT-549 breast, in the assay with CAKI-1 renal, in the assay on DU-145 prostate, with EKVX NSCLC, in the assay with HOP-62 NSCLC and with IGROV1 ovarian was above 100 µM each time. In addition, the TGI with MDA-MB-435 is above 100 µM; in the assay on NCI-H460 lung, above 100 µM; in the assay with RXF 393 renal, 72.9 µM; in the assay on SR leukemia, 65 µM.
As to `Cc1cccc2c1[C@]13OC(C)[C@]4(C)CC5OC(=O)[C@@]1(C)[C@@H]5[C@]34C(=O)O2` (some centres undefined), the TGI in the assay on BT-549 breast, in the assay on CAKI-1 renal, in the assay on DU-145 prostate, in the assay with EKVX NSCLC, in the assay with HOP-62 NSCLC and in the assay on IGROV1 ovarian was above 100 µM in each case. In addition, the TGI in the assay on MDA-MB-435, with NCI-H460 lung, in the assay on RPMI-8226 leukemia, in the assay with SK-MEL-2 melanoma and in the assay on SR leukemia was above 100 µM each time.
For the molecule `COc1ccc2c3c1O[C@H]1C(O)CCC4(O)[C@@H](C2)NCC[C@]314` (some centres undefined), the TGI with BT-549 breast, in the assay with CAKI-1 renal, with DU-145 prostate, in the assay with EKVX NSCLC, with HOP-62 NSCLC and with IGROV1 ovarian was above 100 µM each time. Moreover, the TGI with MDA-MB-435, with RPMI-8226 leukemia, with SK-MEL-2 melanoma and in the assay on SR leukemia was above 100 µM each time.
On to `COc1cccc(CCn2c(N)c(-c3ccccc3)c3ccc([N+](=O)[O-])cc3c2=O)c1`, for which the TGI in the assay on BT-549 breast came to 4.3 µM; in the assay with CAKI-1 renal, 16.7 µM; in the assay on DU-145 prostate, 31.6 µM; in the assay on EKVX NSCLC, 24.8 µM; with HOP-62 NSCLC, 24.4 µM; in the assay on IGROV1 ovarian, 23.4 µM. For the same molecule, the TGI in the assay with MDA-MB-435 was above 67.1 µM; with NCI-H460 lung it was 30 µM; in the assay on RPMI-8226 leukemia, 5 µM; in the assay with SK-MEL-2 melanoma, 48.4 µM; in the assay with SR leukemia it was 31.6 µM.
